According to DBAASP:
≈ marks a conversion by molar mass, not a printed value.

How the values were obtained:
Experiment in all cases: ≥ marks a high value that may be exact or a test limit, other limits are often not marked, values filed in µg/mL are converted to µM
[1] = tested on: Staphylococcus aureus NCTC 10788
[2] = tested on: Candida albicans NCPF 1467
[3] = tested on: Escherichia coli NCTC 10418
[4] = tested on: Micrococcus luteus ATCC 9341
[5] = tested on: Staphylococcus aureus
[6] = tested on: Pseudomonas aeruginosa ATCC 9027
[7] = tested on: Candida albicans ATCC 36232
[8] = tested on: Escherichia coli ATCC 2592
[9] = tested on: Staphylococcus aureus ATCC 6538
[10] = tested on: Proteus vulgaris ATCC 6380
[11] = tested on: Staphylococcus aureus JE2
[12] = tested on: Klebsiella pneumoniae ATCC 13883
[13] = tested on: Escherichia coli ATCC 25922
[14] = tested on: Pseudomonas aeruginosa PAO1
[15] = tested on: Cryptococcus neoformans ATCC 32045
[16] = tested on: Staphylococcus aureus ATCC 33591
[17] = tested on: Pseudomonas aeruginosa ATCC 10145
[18] = tested on: Candida albicans ATCC 10231
[19] = tested on: Klebsiella pneumoniae E406-17
[20] = tested on: Pseudomonas aeruginosa E411-17
[21] = tested on: Staphylococcus aureus M838-17
[22] = tested on: Staphylococcus aureus USA 300 LAC
[23] = tested on: Escherichia coli JW2778 ΔygdD
[24] = tested on: Escherichia coli MC1041
[25] = tested on: Escherichia coli BW25113
[26] = tested on: Escherichia coli JW0368 ΔsbmA
[27] = tested on: Salmonella typhimurium SL1344
[28] = tested on: Escherichia coli J2210
[29] = tested on: Salmonella enterica subsp. enterica serovar Enteritidis MH91989
[30] = tested on: Escherichia coli JW0013
[31] = tested on: Escherichia coli JJ2489

CC[C@H](C)[C@H](NC(=O)[C@H](C)NC(=O)[C@H](Cc1cnc[nH]1)NC(=O)[C@@H]1CCCN1C(=O)[C@@H](NC(=O)[C@H](CC(C)C)NC(=O)[C@H](CO)NC(=O)[C@H](Cc1ccccc1)NC(=O)[C@H](CC(C)C)NC(=O)[C@@H](N)Cc1ccccc1)[C@@H](C)CC)C(=O)N[C@@H](CO)C(=O)NCC(=O)N[C@@H](CC(C)C)C(=O)N[C@H](C(=O)N[C@@H](CO)C(=O)N[C@@H](C)C(=O)N[C@@H](Cc1ccccc1)C(=O)N[C@H](C=O)CCCCN)[C@@H](C)CC [FLFSLIPHAISGLISAFK]
MIC [1]: 8 µM (≈ 15.6 µg/mL)
MIC [2]: 16 µM (≈ 31.1 µg/mL)
MIC [3]: ≥ 250 µM

CC[C@H](C)[C@H](NC(=O)[C@H](C)NC(=O)[C@@H]1CCCN1C(=O)[C@H](CC(C)C)NC(=O)[C@@H](N)Cc1ccccc1)C(=O)N[C@@H](C)C(=O)NCC(=O)N[C@@H](CC(C)C)C(=O)N[C@@H](C)C(=O)N[C@@H](C)C(=O)N[C@@H](CCCCN)C(=O)N[C@@H](Cc1ccccc1)C(=O)N[C@@H](CC(C)C)C(=O)N1CCC[C@H]1C(=O)N[C@@H](CCCCN)C(=O)N[C@H](C(=O)N[C@@H](Cc1ccccc1)C(=O)N[C@H]1CSSC[C@@H](C(=O)O)NC(=O)[C@H](CCCCN)NC(=O)[C@H](CCCCN)NC(=O)[C@H]([C@@H](C)O)NC(=O)[C@H]([C@@H](C)CC)NC(=O)[C@H](C)NC1=O)[C@@H](C)CC [FLPAIAGLAAKFLPKIFCAITKKC]
MIC [1]: 3.12 µM (≈ 8 µg/mL)
MIC [2]: 3.12 µM (≈ 8 µg/mL)
MIC [3]: 12.5 µM (≈ 32 µg/mL)

CC[C@H](C)[C@H](NC(=O)[C@H](CCCCN)NC(=O)[C@@H]1CCCN1C(=O)[C@H](CC(C)C)NC(=O)[C@H](Cc1ccccc1)NC(=O)[C@H](CC(N)=O)NC(=O)[C@H](C)NC(=O)[C@H](C)NC(=O)[C@H](CC(C)C)NC(=O)CNC(=O)[C@H](C)NC(=O)[C@H](CC(C)C)NC(=O)[C@H](CC(C)C)NC(=O)[C@@H]1CCCN1C(=O)[C@H](CC(C)C)NC(=O)[C@@H](N)Cc1ccccc1)C(=O)N[C@@H](Cc1ccccc1)C(=O)N[C@@H](CS)C(=O)N[C@@H](CCCCN)C(=O)N[C@H](C(=O)N[C@H](C(=O)N[C@@H](CCCN=C(N)N)C(=O)N[C@@H](CCCCN)C(=O)N[C@@H](CS)C(N)=O)[C@@H](C)O)[C@@H](C)CC [FLPLLAGLAANFLPKIFCKITRKC]
MIC [4]: 1.16 µM (≈ 3.12 µg/mL)
MIC [5]: 2.33 µM (≈ 6.25 µg/mL)
MIC [6]: 1.16 µM (≈ 3.12 µg/mL)
MIC [7]: 1.16 µM (≈ 3.12 µg/mL)
MIC [8]: 2.33 µM (≈ 6.25 µg/mL)
MIC [9]: 2.33 µM (≈ 6.25 µg/mL)
MIC [10]: ≥ 37.3 µM

CC(C)C[C@H](NC(=O)[C@H](CC(C)C)NC(=O)[C@H](CCCCN)NC(=O)[C@H](CC(C)C)NC(=O)CNC(=O)[C@H](CC(C)C)NC(=O)[C@H](CCCCN)NC(=O)[C@H](CC(C)C)NC(=O)[C@H](CC(C)C)NC(=O)[C@H](CC(C)C)NC(=O)[C@H](CCCCN)NC(=O)[C@H](CC(C)C)NC(=O)[C@@H](N)CCCCN)C(N)=O [KLKLLLKLGLKLL]
MIC [11]: 1.56 µM (≈ 2.33 µg/mL)
MIC [12]: 25 µM (≈ 37.3 µg/mL)
MIC [13]: > 25 µM
MIC [14]: > 25 µM

CC(C)C[C@H](NC(=O)[C@H](CCCCN)NC(=O)[C@H](CC(C)C)NC(=O)[C@H](CCCCN)NC(=O)[C@H](CC(C)C)NC(=O)[C@H](CCCCN)NC(=O)[C@H](CC(C)C)NC(=O)[C@H](CCCCN)NC(=O)[C@H](CC(C)C)NC(=O)[C@H](CCCCN)NC(=O)[C@H](CC(C)C)NC(=O)[C@H](CCCCN)NC(=O)[C@H](CC(C)C)NC(=O)[C@H](CCCCN)NC(=O)[C@H](CC(C)C)NC(=O)[C@H](CCCCN)NC(=O)[C@H](CC(C)C)NC(=O)[C@H](CCCCN)NC(=O)[C@H](CC(C)C)NC(=O)[C@H](CCCCN)NC(=O)[C@@H](N)CC(C)C)C(=O)N[C@@H](CCCCN)C(=O)O [LKLKLKLKLKLKLKLKLKLKLK]
MIC [15]: 16.7 µM (≈ 44.5 µg/mL)
MIC [16]: ≥ 93.5 µM
MIC [17]: 23.2 µM (≈ 62 µg/mL)
MIC [18]: 132 µM (≈ 354 µg/mL)
MIC [8]: ≥ 46.8 µM

CC[C@H](C)[C@H](NC(=O)[C@H](CCCCN)NC(=O)[C@@H](N)CCCN=C(N)N)C(=O)N[C@@H](Cc1c[nH]c2ccccc12)C(=O)N[C@@H](Cc1c[nH]c2ccccc12)C(=O)N[C@@H](Cc1c[nH]c2ccccc12)C(=O)N[C@@H](Cc1c[nH]c2ccccc12)C(=O)N[C@@H](CC(C)C)C(N)=O [RKIWWWWL]
MIC [19]: 12.5 µM (≈ 15.9 µg/mL)
MIC [12]: 4.38 µM (≈ 5.58 µg/mL)
MIC [20]: ≥ 50 µM
MIC [13]: 6.2 µM (≈ 7.89 µg/mL)
MIC [21]: 8.8 µM (≈ 11.2 µg/mL)
MIC [22]: 4.38 µM (≈ 5.58 µg/mL)

CC[C@H](C)[C@H](NC(=O)[C@H](CCCN=C(N)N)NC(=O)[C@@H](N)CCCN=C(N)N)C(=O)N[C@@H](CCCCN)C(=O)N[C@@H](CCCCN)C(=O)N[C@@H](CCCN=C(N)N)C(=O)N1CCC[C@H]1C(=O)N1CCC[C@H]1C(=O)N[C@@H](CCCN=C(N)N)C(=O)N[C@@H](CC(C)C)C(=O)N1CCC[C@H]1C(=O)N[C@@H](CCCN=C(N)N)C(=O)N1CCC[C@H]1C(=O)N[C@@H](CCCN=C(N)N)C(=O)N1CCC[C@H]1C(=O)N[C@@H](CCCN=C(N)N)C(=O)O [RRIKKRPPRLPRPRPR]
MIC [23]: 0.12 µM (≈ 0.25 µg/mL)
MIC [24]: 0.06 µM (≈ 0.125 µg/mL)
MIC [25]: 0.078 µM (≈ 0.162 µg/mL)
MIC [26]: 0.06 µM (≈ 0.125 µg/mL)
MIC [27]: 0.12 µM (≈ 0.25 µg/mL)
MIC [28]: 0.157 µM (≈ 0.326 µg/mL)
MIC [29]: 0.12 µM (≈ 0.25 µg/mL)
MIC [30]: 0.06 µM (≈ 0.125 µg/mL)
MIC [31]: 0.12 µM (≈ 0.25 µg/mL)

CC[C@H](C)[C@H](NC(=O)[C@H](CCCN=C(N)N)NC(=O)[C@@H](N)CCCN=C(N)N)C(=O)N[C@@H](CCCCN)C(=O)N1CCC[C@H]1C(=O)N[C@@H](CCCN=C(N)N)C(=O)N1CCC[C@H]1C(=O)N1CCC[C@H]1C(=O)N[C@@H](CCCN=C(N)N)C(=O)N[C@@H](CC(C)C)C(=O)N1CCC[C@H]1C(=O)N[C@@H](CCCN=C(N)N)C(=O)N1CCC[C@H]1C(=O)N[C@@H](CCCN=C(N)N)C(=O)N1CCC[C@H]1C(=O)N[C@@H](CCCCN)C(=O)O [RRIKPRPPRLPRPRPK]
MIC [23]: 0.12 µM (≈ 0.242 µg/mL)
MIC [24]: 0.06 µM (≈ 0.121 µg/mL)
MIC [25]: 0.06 µM (≈ 0.121 µg/mL)
MIC [26]: 0.06 µM (≈ 0.121 µg/mL)
MIC [27]: 0.12 µM (≈ 0.242 µg/mL)
MIC [28]: 0.12 µM (≈ 0.242 µg/mL)
MIC [29]: 0.157 µM (≈ 0.317 µg/mL)
MIC [30]: 0.06 µM (≈ 0.121 µg/mL)
MIC [31]: 0.12 µM (≈ 0.242 µg/mL)
